Results on 13 molecules are retold here after US10428063B2 (Bayer Pharma Aktiengesellschaft, priority 2015, dated 2019).

The target in the test is catalytic domain of human Bub1 (amino acids 704-1085) (Homo sapiens (Human), UniProt O43683). Nature of the test: Bub1 kinase assay (TR-FRET). The test is classed as biochemical. The following applies: 10 μM ATP, 1 μM peptide substrate, recombinant catalytic domain of human Bub1, read-out: Bub1 kinase assay median IC50. The source says: Bub1-inhibitory activities of compounds described in the present invention were quantified using a time-resolved fluorescence energy transfer (TR-FRET) kinase assay which measures phosphorylation of the synthetic peptide Biotin-Ahx-VLLPKKSFAEPG (C-terminus in amide form), purchased from e.g. Biosyntan (Berlin, Germany) by the (recombinant) catalytic domain of human Bub1 (amino acids 704-1085), expressed in Hi5 insect cells with an N-terminal His6-tag and purified by affinity- (Ni-NTA) and size exclusion chromatography.
In a typical assay 11 different concentrations of each compound (0.1 nM, 0.33 nM, 1.1 nM, 3.8 nM, 13 nM, 44 nM, 0.15 μM, 0.51 μM, 1.7 μM, 5.9 μM and 20 μM) were tested in duplicate within the same microtiter plate. To this end, 100-fold concentrated compound solutions (in DMSO) were previously prepared by serial dilution (1:3.4) of 2 mM stocks in a clear low volume 384-well source microtiter plate (Greiner Bio-One, Frickenhausen, Germany), from which 50 nl of compounds were transferred into a black low volume test microtiter plate from the same supplier. Subsequently, 2 μl of Bub1 (the final concentration of Bub1 was adjusted depending on the activity of the enzyme lot in order to be within the linear dynamic range of the assay: typically ˜200 ng/ml were used) in aqueous assay buffer [50 mM Tris/HCl pH 7.5, 10 mM magnesium chloride (MgCl2), 200 mM potassium chloride (KCl), 1.0 mM dithiothreitol (DTT), 0.1 mM sodium ortho-vanadate, 1% (v/v) glycerol, 0.01% (w/v) bovine serum albumine (BSA), 0.005% (v/v) Trition X-100 (Sigma), 1× Complete EDTA-free protease inhibitor mixture (Roche)] were added to the compounds in the test plate and the mixture was incubated for 15 min at 22° C. to allow pre-equilibration of the putative enzyme-inhibitor complexes before the start of the kinase reaction, which was initiated by the addition of 3 μl 1.67-fold concentrated solution (in assay buffer) of adenosine-tri-phosphate (ATP, 10 μM final concentration) and peptide substrate (1 μM final concentration). The resulting mixture (5 μl final volume) was incubated at 22° C. during 60 min., and the reaction was stopped by the addition of 5 μl of an aqueous EDTA-solution (50 mM EDTA, in 100 mM HEPES pH 7.5 and 0.2% (w/v) bovine serum albumin) which also contained the TR-FRET detection reagents (0.2 μM streptavidin-XL665 [Cisbio Bioassays, Codolet, France] and 1 nM anti-phosho-Serine antibody [Merck Millipore, cat. #35-002] and 0.4 nM LANCE EU-W1024 labeled anti-mouse IgG antibody [Perkin-Elmer, product no. AD0077, alternatively a Terbium-cryptate-labeled anti-mouse IgG antibody from Cisbio Bioassays can be used]). The stopped reaction mixture was further incubated 1 h at 22° C. in order to allow the formation of complexes between peptides and detection reagents. Subsequently, the amount of product was evaluated by measurement of the resonance energy transfer from the Eu-chelate-antibody complex recognizing the Phosphoserine residue to the streptavidin-XL665 bound to the biotin moiety of the peptide. To this end, the fluorescence emissions at 620 nm and 665 nm after excitation at 330-350 nm were measured in a TR-FRET plate reader, e.g. a Rubystar or Pherastar (both from BMG Labtechnologies, Offenburg, Germany) or a Viewlux (Perkin-Elmer) and the ratio of the emissions (665 nm/622 nm) was taken as indicator for the amount of phosphorylated substrate. The data were normalised using two sets of control wells for high- (=enzyme reaction without inhibitor=0%=Minimum inhibition) and low- (=all assay components without enzyme=100%=Maximum inhibition) Bub1 activity. IC50 values were calculated by fitting the normalized inhibition data to a 4-parameter logistic equation (Minimum, Maximum, IC50, Hill; Y=Max+(Min−Max)/(1+(X/IC50)Hill)).

Usually IC50 stands for the midpoint of a concentration-inhibition curve.

catalytic domain of human Bub1 (amino acids 704-1085), sequence (O43683 704-1085): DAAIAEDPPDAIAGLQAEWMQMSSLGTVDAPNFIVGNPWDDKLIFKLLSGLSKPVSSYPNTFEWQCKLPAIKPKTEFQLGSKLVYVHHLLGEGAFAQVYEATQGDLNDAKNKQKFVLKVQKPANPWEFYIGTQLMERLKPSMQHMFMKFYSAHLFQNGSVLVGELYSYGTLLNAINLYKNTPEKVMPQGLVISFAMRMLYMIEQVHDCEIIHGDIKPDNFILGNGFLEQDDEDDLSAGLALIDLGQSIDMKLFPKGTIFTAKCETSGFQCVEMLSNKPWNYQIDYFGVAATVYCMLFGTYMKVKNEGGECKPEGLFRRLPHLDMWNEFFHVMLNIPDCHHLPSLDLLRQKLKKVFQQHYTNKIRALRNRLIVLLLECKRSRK

On to `CN1CCc2[nH]c(-c3ccncc3OCC(F)F)c(Nc3ccccc3)c2C1=O` [Example 29, 2-[3-(2,2-difluoroethoxy)pyridin-4-yl]-5-methyl-3-(phenylamino)-1,5,6,7-tetrahydro-4H-pyrrolo[3,2-c]pyridin-4-one], for which the IC50 came to 70.8 nM. As for `CN1CCc2[nH]c(-c3ccncc3OCC(F)(F)F)c(Nc3ccccc3)c2C1=O` [Example 30, 5-methyl-3-(phenylamino)-2-[3-(2,2,2-trifluoroethoxy)pyridin-4-yl]-1,5,6,7-tetrahydro-4H-pyrrolo[3,2-c]pyridin-4-one], the IC50 came to 84.3 nM. As for `COCCOc1cnccc1-c1[nH]c2c(c1Nc1ccccc1)C(=O)N(C)CC2` [Example 31, 2-[3-(2-methoxyethoxy)pyridin-4-yl]-5-methyl-3-(phenylamino)-1,5,6,7-tetrahydro-4H-pyrrolo[3,2-c]pyridin-4-one], the half-inhibitory concentration (IC50) was determined as 9.93 nM. Regarding `CN1CCc2[nH]c(-c3ccncc3OCc3ccccc3)c(Nc3ccccc3)c2C1=O` [Example 32, 2-[3-(benzyloxy)pyridin-4-yl]-5-methyl-3-(phenylamino)-1,5,6,7-tetrahydro-4H-pyrrolo[3,2-c]pyridin-4-one], the IC50 stood at 41.6 nM.

Turning to `CN1CCc2[nH]c(-c3ccncc3OCCC(F)(F)F)c(Nc3ccccc3)c2C1=O` [Example 33, 5-methyl-3-(phenylamino)-2-[3-(3,3,3-trifluoropropoxy)pyridin-4-yl]-1,5,6,7-tetrahydro-4H-pyrrolo[3,2-c]pyridin-4-one], the IC50 is 51.8 nM.

As for `CN1CCc2[nH]c(-c3ccncc3OC[C@H]3CCOC3)c(Nc3ccccc3)c2C1=O` [Example 34, 5-methyl-3-(phenylamino)-2-{3-[(3S)-tetrahydrofuran-3-ylmethoxy]pyridin-4-yl}-1,5,6,7-tetrahydro-4H-pyrrolo[3,2-c]pyridin-4-one], the IC50 was 22.5 nM. With `CN1CCc2[nH]c(-c3ccncc3OCCC(C)(C)C)c(Nc3ccccc3)c2C1=O` [Example 35, 2-[3-(3,3-dimethylbutoxy)pyridin-4-yl]-5-methyl-3-(phenylamino)-1,5,6,7-tetrahydro-4H-pyrrolo[3,2-c]pyridin-4-one] the figure was 85.9 nM. With `CN1CCc2[nH]c(-c3ccnc4[nH]cnc34)c(Nc3ccccc3)c2C1=O` [Example 36, 2-(3H-imidazo[4,5-b]pyridin-7-yl)-5-methyl-3-(phenylamino)-1,5,6,7-tetrahydro-4H-pyrrolo[3,2-c]pyridin-4-one] the figure was 34.8 nM; with `O=C1NCCc2[nH]c(-c3ccncc3OCC3CC3)c(Nc3ccc(F)c(F)c3)c21` [Example 37, 2-[3-(cyclopropylmethoxy)pyridin-4-yl]-3-[(3,4-difluorophenyl)amino]-1,5,6,7-tetrahydro-4H-pyrrolo[3,2-c]pyridin-4-one], 59.8 nM. Regarding `O=C1NCCc2[nH]c(-c3ccncc3OCC3CC3)c(Nc3ccc(F)cc3)c21` [Example 38, 2-[3-(cyclopropylmethoxy)pyridin-4-yl]-3-[(4-fluorophenyl)amino]-1,5,6,7-tetrahydro-4H-pyrrolo[3,2-c]pyridin-4-one], the IC50 amounted to 56.1 nM. With `O=C1NCCc2[nH]c(-c3ccncc3OCC3CC3)c(Nc3cccc(F)c3)c21` [Example 39, 2-[3-(cyclopropylmethoxy)pyridin-4-yl]-3-[(3-fluorophenyl)amino]-1,5,6,7-tetrahydro-4H-pyrrolo[3,2-c]pyridin-4-one] the figure was 24.1 nM; with `CN1CCc2[nH]c(-c3ccnc(NC(=O)[C@@H]4C[C@@H]4F)c3)c(Nc3ccccc3)c2C1=O` [Example 40, (1S,2S)-2-fluoro-N-{4-[5-methyl-4-oxo-3-(phenylamino)-4,5,6,7-tetrahydro-1H-pyrrolo[3,2-c]pyridin-2-yl]pyridin-2-yl}cyclopropanecarboxamide], 28.1 nM. With `O=C1NCCc2[nH]c(-c3ccncc3OCC(F)F)c(Nc3cccc(F)c3)c21` [Example 41, 2-[3-(2,2-difluoroethoxy)pyridin-4-yl]-3-[(3-fluorophenyl)amino]-1,5,6,7-tetrahydro-4H-pyrrolo[3,2-c]pyridin-4-one] the figure was 36.8 nM.
